# Assay results from BindingDB's records for doi:10.1021/jm800588x (Eberhard Karls University Tuebingen, 2008).
# pEC50: −log10 of the molar value.
# Molecular target: T1, Polyunsaturated fatty acid 5-lipoxygenase (Homo sapiens, UniProt P09917)
# T1 sequence (P09917 whole entry): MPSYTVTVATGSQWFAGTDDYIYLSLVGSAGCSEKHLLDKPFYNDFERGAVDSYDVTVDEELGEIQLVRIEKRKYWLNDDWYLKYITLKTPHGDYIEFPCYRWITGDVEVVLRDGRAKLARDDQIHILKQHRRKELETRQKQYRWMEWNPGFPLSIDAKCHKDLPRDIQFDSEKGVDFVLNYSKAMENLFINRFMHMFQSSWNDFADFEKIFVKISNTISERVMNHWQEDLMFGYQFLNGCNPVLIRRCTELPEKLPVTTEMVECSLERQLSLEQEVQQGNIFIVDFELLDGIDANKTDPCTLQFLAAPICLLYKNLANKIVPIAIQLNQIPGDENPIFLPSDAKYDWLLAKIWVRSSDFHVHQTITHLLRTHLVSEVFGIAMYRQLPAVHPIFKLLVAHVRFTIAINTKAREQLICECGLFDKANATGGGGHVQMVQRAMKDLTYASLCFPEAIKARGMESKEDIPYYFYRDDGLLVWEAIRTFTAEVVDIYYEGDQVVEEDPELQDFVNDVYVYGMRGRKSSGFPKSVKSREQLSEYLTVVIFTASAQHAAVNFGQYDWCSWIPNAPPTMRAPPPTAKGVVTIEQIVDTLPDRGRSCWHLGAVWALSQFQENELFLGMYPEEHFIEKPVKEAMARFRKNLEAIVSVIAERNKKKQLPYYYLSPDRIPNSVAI
# Assay: Determination of 5-LO Product Formation in Intact Cells (EC50/IC50)
# Details: pH 7.4; 37 °C
# Description: For assays of intact cells, 5000,000 freshly isolated PMNL cells were resuspended in PGC buffer. After preincubation with the test compounds for 15 min at RT, 5-LO product formation was started by addition of ionophore A23187 plus arachidonic acid. Formed 5-LO metabolites were extracted and analyzed by HPLC. 5-LO product formation is expressed as ng of 5-LO products per 1000,000 cells, which includes LTB4 and its all-trans isomers, and 5(S)-hydro(pero)xy-6-trans- 8,11,14-cis-eicosatetraenoic acid.
row,pEC50,Compound
1,5.39,"CCCCCCC(Sc1nc(Cl)cc(Nc2cccc(C)c2C)n1)C(=O)O (stereo not given) [2-({4-chloro-6-[(2,3-dimethylphenyl)amino]pyrimidin-2-yl}sulfanyl)octanoic acid]"
2,5.41,"O=C(O)CSc1nc(Cl)cc(Nc2cccc3c2CCC3)n1 [2-{[4-chloro-6-(2,3-dihydro-1H-inden-4-ylamino)pyrimidin-2-yl]sulfanyl}acetic acid]"
3,5.74,"CCOC(=O)C(Sc1nc(Cl)cc(Nc2cccc(C)c2C)n1)c1ccccc1 (stereo not given) [ethyl 2-({4-chloro-6-[(2,3-dimethylphenyl)amino]pyrimidin-2-yl}sulfanyl)-2-phenylacetate]"
4,5.49,"CCOC(=O)CSc1nc(Cl)cc(Nc2cccc3c2CCC3)n1 [ethyl 2-{[4-chloro-6-(2,3-dihydro-1H-inden-4-ylamino)pyrimidin-2-yl]sulfanyl}acetate]"
5,5.92,CCOC(=O)C(Sc1nc(Cl)cc(Nc2ccc3ncccc3c2)n1)c1ccccc1 (stereo not given) [ethyl 2-{[4-chloro-6-(quinolin-6-ylamino)pyrimidin-2-yl]sulfanyl}-2-phenylacetate]
6,5.59,CCOC(=O)CSc1nc(Cl)cc(Nc2ccc3ncccc3c2)n1 [ethyl 2-{[4-chloro-6-(quinolin-6-ylamino)pyrimidin-2-yl]sulfanyl}acetate]
7,5.96,CCCCC(Sc1nc(Cl)cc(Nc2ccc3ncccc3c2)n1)C(=O)OCC (stereo not given) [ethyl 2-{[4-chloro-6-(quinolin-6-ylamino)pyrimidin-2-yl]sulfanyl}hexanoate]
8,5.77,CCCCCCC(Sc1nc(Cl)cc(Oc2ccc3ncccc3c2)n1)C(=O)OCC (stereo not given) [ethyl 2-{[4-chloro-6-(quinolin-6-yloxy)pyrimidin-2-yl]sulfanyl}octanoate]

# Molecular target: T1, Polyunsaturated fatty acid 5-lipoxygenase
# Assay: Determination of 5-LO Product Formation in Cell-Free Systems (IC50).
# Details: pH 7.4; 37 °C
# Description: For determination of the activity of 5-LO in 100000g supernatants, aliquots of the supernatants were added to reaction mix, and were preincubated with the test compounds before arachidonic acid was added to start 5-LO product formation. Formed 5-LO metabolites were extracted and analyzed by HPLC. 5-LO product includes LTB4 and its all-trans isomers, and 5(S)-hydro(pero)xy-6-trans- 8,11,14-cis-eicosatetraenoic acid. IC50s are expressed as mean +/- SE, obtained from measurements at 4-5 different concentrations of test compounds, and determined using Graphpad Instat (Graphpad Software Inc., San Diego, CA). EC50/IC50 values were obtained from product formation in PMNL intact cells.
row,pEC50,Compound
1,4.43,CCCCCCC(Sc1nc(Cl)cc(NCc2ccc3ncccc3c2)n1)C(=O)OCC (stereo not given) [ethyl 2-({4-chloro-6-[(quinolin-6-ylmethyl)amino]pyrimidin-2-yl}sulfanyl)octanoate]
2,4.72,CCCCCCC(Sc1nc(Cl)cc(Nc2ccc3ncccc3c2)n1)C(=O)OCC (stereo not given) [ethyl 2-{[4-chloro-6-(quinolin-6-ylamino)pyrimidin-2-yl]sulfanyl}octanoate]
